Measured values published in patent US11814376B2, “Hepatitis b core protein modulators” (Assembly Biosciences, Inc., priority 2015, dated 2023).

How the values were obtained:
[1] = system: HBV viral load in AD38 cells; assay: Viral load production in AD38 cells, quantitative PCR of the core sequence in supernatant; assay type: cell-based; settings: 10 μM compound, 6 days at 37° C., supernatant qPCR, relative to DMSO control; for activity at 10 µM: Hepatitis B virus, 144 h, read-out: AD38 Viral Load (%) (VL with cmpd/VL in DMSO control) at 10 μM
AD38 cells = assay: Viability of AD38 cells (Promega CellTiter-Glo); assay type: cell-based; settings: 10 μM compound, 6 days, CellTiter-Glo luminescence normalized to DMSO control (100%)
Method in brief: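 After 6 days of compound exposure at 37° C (compound added as 10× solution in 10% DMSO; 50,000 cells/well, collagen-coated), medium was replaced with tetracycline-free DMEM/F12, 2% FBS, 1% DMSO. CellTiter-Glo luminescence was then recorded and normalized to DMSO-treated wells as 100% viability.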

O=C(O)CSc1ncc(CNC(=O)c2ccc3c(c2)NC(=O)c2ccccc2S3)s1 [compound 1603, 2-((5-((11-oxo-10, 11-dihydrodibenzo [b, f] [1, 4]thiazepine-8-carboxamido)methyl)thiazol-2-yl)thio) acetic acid]
activity at 10 µM [1]: 32.8% | AD38 Viability Normalized Result (cmpd/DMSO %) at 10 μM (AD38 cells): 108%

O=C(O)CSc1ncc(CNC(=O)c2ccc3c(c2)NC(=O)c2ccccc2O3)s1 [compound 1616, 2-((5-((11-oxo-10, 11-dihydrodibenzo [b, f] [1, 4]oxazepine-8-carboxamido)methyl)thiazol-2-yl)thio) acetic acid]
activity at 10 µM [1]: 105% | AD38 Viability Normalized Result (cmpd/DMSO %) at 10 μM (AD38 cells): 103%

O=C(NCc1nccs1)c1ccc2c(c1)NC(=O)c1ccccc1S2(=O)=O [compound 1650]
activity at 10 µM [1]: 58.8% | AD38 Viability Normalized Result (cmpd/DMSO %) at 10 μM (AD38 cells): 82%

Cl.O=C(NCc1cnc(-c2ccc(C(=O)N3CCNCC3)cc2)s1)c1ccc2c(c1)NC(=O)c1ccccc1S2(=O)=O [compound 11016, 11-oxo-N-((2-(4-(piperazine-1-carbonyl)phenyl)thiazol-5-yl)methyl)-10, 11-dihydrodibenzo [b, f] [1, 4] thiazepine-8-carboxamide 5,5-dioxide hydrochloride]
activity at 10 µM [1]: 38.8% | AD38 Viability Normalized Result (cmpd/DMSO %) at 10 μM (AD38 cells): 106%

CN(Cc1cnc(-c2ccc(O)cc2)s1)C(=O)c1ccc2c(c1)NC(=O)c1ccccc1S2(=O)=O [compound 1661]
activity at 10 µM [1]: 45.2% | AD38 Viability Normalized Result (cmpd/DMSO %) at 10 μM (AD38 cells): 90%

O=C(NCc1cnc(-c2cncs2)s1)c1ccc2c(c1)NC(=O)c1ccccc1S2(=O)=O [compound 1956]
activity at 10 µM [1]: 2.3% | AD38 Viability Normalized Result (cmpd/DMSO %) at 10 μM (AD38 cells): 88%

Cl.NCCCSc1ccc(-c2ncc(CNC(=O)c3ccc4c(c3)NC(=O)c3ccccc3S4(=O)=O)s2)cc1 [compound 11007, N-((2-(4-((3-aminopropyl)thio)phenyl)thiazol-5-yl)methyl)-11-oxo-10, 11-dihydrodibenzo [b, f] [1, 4] thiazepine-8-carboxamide 5,5-dioxide hydrochloride]
activity at 10 µM [1]: 2% | AD38 Viability Normalized Result (cmpd/DMSO %) at 10 μM (AD38 cells): 101%

O=C(O)COc1ncc(CNC(=O)c2ccc3c(c2)NC(=O)c2ccccc2S3(=O)=O)s1 [compound 1580, 2-((5-((5,5-dioxido-11-oxo-10, 11-dihydrodibenzo [b, f] [1, 4]thiazepine-8-carboxamido)methyl)thiazol-2-yl)oxy) acetic acid]
activity at 10 µM [1]: 104% | AD38 Viability Normalized Result (cmpd/DMSO %) at 10 μM (AD38 cells): 102%

Cl.NCc1ccc(-c2ncc(CNC(=O)c3ccc4c(c3)NC(=O)c3ccccc3S4(=O)=O)s2)cc1 [compound 1654, N-((2-(4-(aminomethyl)phenyl)thiazol-5-yl)methyl)-11-oxo-10, 11-dihydrodibenzo [b, f] [1, 4] thiazepine-8-carboxamide 5,5-dioxide hydrochloride]
activity at 10 µM [1]: 0.5% | AD38 Viability Normalized Result (cmpd/DMSO %) at 10 μM (AD38 cells): 94%

N#Cc1ccc(-c2ncc(CNC(=O)c3ccc4c(c3)NC(=O)c3ccccc3N4CCO)s2)c(F)c1 [compound 11079]
activity at 10 µM [1]: 3.3% | AD38 Viability Normalized Result (cmpd/DMSO %) at 10 μM (AD38 cells): 102%

COc1ccc(-c2ncc(CNC(=O)c3ccc4c(c3)NC(=O)c3ccccc3S4(=O)=O)s2)nc1 [1879-A]
activity at 10 µM [1]: 2.5% | AD38 Viability Normalized Result (cmpd/DMSO %) at 10 μM (AD38 cells): 121%

CC(C)(C)c1ncc(CNC(=O)c2ccc3c(c2)NC(=O)c2ccccc2S3)s1 [compound 1555]
activity at 10 µM [1]: 1% | AD38 Viability Normalized Result (cmpd/DMSO %) at 10 μM (AD38 cells): 89%

Cl.N=C(N)c1ccc(-c2ncc(CNC(=O)c3ccc4c(c3)NC(=O)c3ccccc3S4(=O)=O)s2)cc1 [compound 1653, N-((2-(4-carbamimidoylphenyl)thiazol-5-yl)methyl)-11-oxo-10, 11-dihydrodibenzo [b, f] [1, 4] thiazepine-8-carboxamide 5,5-dioxide hydrochloride]
activity at 10 µM [1]: 65.4% | AD38 Viability Normalized Result (cmpd/DMSO %) at 10 μM (AD38 cells): 108%

O=C(NCc1cnc(-n2cc(F)cn2)s1)c1ccc2c(c1)NC(=O)c1ccccc1S2(=O)=O [compound 11038]
activity at 10 µM [1]: 2% | AD38 Viability Normalized Result (cmpd/DMSO %) at 10 μM (AD38 cells): 99%

O=C(NCc1cnc(N2CCC(O)CC2)s1)c1ccc2c(c1)NC(=O)c1ccccc1O2 [compound 1865]
activity at 10 µM [1]: 1% | AD38 Viability Normalized Result (cmpd/DMSO %) at 10 μM (AD38 cells): 94%

COC(=O)[C@@H]1CCCN1CCCOc1ccc(-c2ncc(CNC(=O)c3ccc4c(c3)NC(=O)c3ccccc3S4(=O)=O)s2)cc1 [11106-A]
activity at 10 µM [1]: 3.6% | AD38 Viability Normalized Result (cmpd/DMSO %) at 10 μM (AD38 cells): 90%

O=C(NCc1cnc(C(F)(F)F)s1)c1ccc2c(c1)NC(=O)c1ccccc1O2 [compound 1629]
activity at 10 µM [1]: 3.2% | AD38 Viability Normalized Result (cmpd/DMSO %) at 10 μM (AD38 cells): 107%

Cc1c(C(=O)NCc2cnc(-c3ccc(O)cc3)s2)ccc2c1NC(=O)c1ccccc1S2(=O)=O [compound 1768]
activity at 10 µM [1]: 0.4% | AD38 Viability Normalized Result (cmpd/DMSO %) at 10 μM (AD38 cells): 94%

O=C(NCc1cnc(N2CCCCC2)s1)c1ccc2c(c1)NC(=O)c1ccccc1S2(=O)=O [compound 1905]
activity at 10 µM [1]: 0.3% | AD38 Viability Normalized Result (cmpd/DMSO %) at 10 μM (AD38 cells): 109%

O=C(NCc1cnc(-c2ccc(-c3cc[nH]n3)cc2)s1)c1ccc2c(c1)NC(=O)c1ccccc1S2(=O)=O [compound 1953]
activity at 10 µM [1]: 0.4% | AD38 Viability Normalized Result (cmpd/DMSO %) at 10 μM (AD38 cells): 118%

O=C(NCc1cnc(-c2cc(F)c(O)c(F)c2)s1)c1ccc2c(c1)NC(=O)c1ccccc1O2 [compound 1701]
activity at 10 µM [1]: 2.1% | AD38 Viability Normalized Result (cmpd/DMSO %) at 10 μM (AD38 cells): 94%

O=C(NCc1cnc(-c2ccc3ncccc3c2)s1)c1ccc2c(c1)NC(=O)c1ccccc1S2(=O)=O [compound 1819]
activity at 10 µM [1]: 0.5% | AD38 Viability Normalized Result (cmpd/DMSO %) at 10 μM (AD38 cells): 118%

CN1CCC[C@H]1COc1ccc(-c2ncc(CNC(=O)c3ccc4c(c3)NC(=O)c3ccccc3S4(=O)=O)s2)cc1 [compound 11135, (S)—N-((2-(4-((1-methylpyrrolidin-2-yl)methoxy)phenyl)thiazol-5-yl)methyl)-11-oxo-10,11-dihydrodibenzo [b, f] [1, 4] thiazepine-8-carboxamide 5,5-dioxide]
activity at 10 µM [1]: 1.8% | AD38 Viability Normalized Result (cmpd/DMSO %) at 10 μM (AD38 cells): 91%

N#Cc1ccnc(-c2ncc(CNC(=O)c3ccc4c(c3)NC(=O)c3ccccc3S4(=O)=O)s2)c1 [compound 11051]
activity at 10 µM [1]: 1.2% | AD38 Viability Normalized Result (cmpd/DMSO %) at 10 μM (AD38 cells): 103%

CN(C)c1ccc(-c2ncc(CNC(=O)c3ccc4c(c3)NC(=O)c3ccccc3S4(=O)=O)s2)cn1 [compound 1674]
activity at 10 µM [1]: 0.3% | AD38 Viability Normalized Result (cmpd/DMSO %) at 10 μM (AD38 cells): 121%

Cc1cc(-c2ncc(CNC(=O)c3ccc4c(c3)NC(=O)c3ccccc3O4)s2)cc(C)c1O [compound 1738, N-((2-(4-hydroxy-3,5-dimethylphenyl)thiazol-5-yl)methyl)-11-oxo-10, 11-dihydrodibenzo [b, f] [1, 4] oxazepine-8-carboxamide]
activity at 10 µM [1]: 2.9% | AD38 Viability Normalized Result (cmpd/DMSO %) at 10 μM (AD38 cells): 93%

O=C(NCc1cnc(C(F)(F)F)s1)c1ccc2c(c1)NC(=O)c1ccccc1S2 [compound 1421]
activity at 10 µM [1]: 1.3% | AD38 Viability Normalized Result (cmpd/DMSO %) at 10 μM (AD38 cells): 104%

COC(=O)C1CCN(CCCOc2ccc(-c3ncc(CNC(=O)c4ccc5c(c4)NC(=O)c4ccccc4S5(=O)=O)s3)cc2)C1 (stereo not shown) [11107-A, methyl 1-(3-(4-(5-((5,5-dioxido-11-oxo-10, 11-dihydrodibenzo [b, f] [1, 4]thiazepine-8-carboxamido)methyl)thiazol-2-yl)phenoxy)propyl) pyrrolidine-3-carboxylate]
AD38 Viral Load (%) (VL with cmpd/VL in DMSO control) at 10 μM [1]: 7.7% | AD38 Viability Normalized Result (cmpd/DMSO %) at 10 μM (AD38 cells): 100%

O=C(NCc1cnc(-c2ccc3cnccc3c2)s1)c1ccc2c(c1)NC(=O)c1ccccc1S2(=O)=O [compound 1820]
activity at 10 µM [1]: 3.2% | AD38 Viability Normalized Result (cmpd/DMSO %) at 10 μM (AD38 cells): 105%

CN(C)CCOc1ccc(-c2ncc(CNC(=O)c3ccc4c(c3)NC(=O)c3ccccc3O4)s2)cc1 [compound 1621]
activity at 10 µM [1]: 25.9% | AD38 Viability Normalized Result (cmpd/DMSO %) at 10 μM (AD38 cells): 81%

Cc1c(C(=O)NCc2cnc(-c3ccc(F)cn3)s2)ccc2c1NC(=O)c1ccccc1S2(=O)=O [compound 11150]
activity at 10 µM [1]: 0.4% | AD38 Viability Normalized Result (cmpd/DMSO %) at 10 μM (AD38 cells): 100%

NC(=O)c1cccc(-c2ncc(CNC(=O)c3ccc4c(c3)NC(=O)c3ccccc3S4(=O)=O)s2)c1 [1677-B, N-((2-(3-carbamoylphenyl)thiazol-5-yl)methyl)-11-oxo-10, 11-dihydrodibenzo [b, f] [1, 4] thiazepine-8-carboxamide 5,5-dioxide]
activity at 10 µM [1]: 2.4% | AD38 Viability Normalized Result (cmpd/DMSO %) at 10 μM (AD38 cells): 89%

O=C(NCc1cnc(-c2ccc3[nH]cnc3c2)s1)c1ccc2c(c1)NC(=O)c1ccccc1O2 [compound 1695]
activity at 10 µM [1]: 22.9% | AD38 Viability Normalized Result (cmpd/DMSO %) at 10 μM (AD38 cells): 102%

CC(C)CN1c2ccc(C(=O)NCc3cnc(C(F)(F)F)s3)cc2NC(=O)c2ccccc21 [compound 11043]
activity at 10 µM [1]: 12% | AD38 Viability Normalized Result (cmpd/DMSO %) at 10 μM (AD38 cells): 100%

CC(C)(C)OC(=O)N1CCN(C(=O)c2ccc(-c3ncc(CNC(=O)c4ccc5c(c4)NC(=O)c4ccccc4S5(=O)=O)s3)cc2)CC1 [11016-A, tert-butyl 4-(4-(5-((5,5-dioxido-11-oxo-10, 11-dihydrodibenzo [b, f] [1, 4]thiazepine-8-carboxamido)methyl)thiazol-2-yl)benzoyl) piperazine-1-carboxylate]
AD38 Viral Load (%) (VL with cmpd/VL in DMSO control) at 10 μM [1]: 6.7% | AD38 Viability Normalized Result (cmpd/DMSO %) at 10 μM (AD38 cells): 103%
